Earlier results, collected in article PMC7904743, “WIDOCK: a reactive docking protocol for virtual screening of covalent inhibitors” (Journal of Computer-Aided Molecular Design, 2021).
Like-named read-outs stand apart in the source and are kept apart here.

Tests used:
[1] = tested on: OTUB2; conditions: experimental actives if % labeling higher than 50%, cited from earlier work
[2] = tested on: NUDT7; conditions: protein labeling at 200 μM; experimental actives if % labeling higher than 50%; cited from earlier work
[3] = thiol reactivity, cited from earlier work
[4] = natural log of average rate constant k
[5] = natural logarithm of average rate constant
[6] = natural log of average rate constant
[7] = natural log of average kinetic rate constant

| SMILES | OTUB2 % labeling [1] [%] | NUDT7 % labeling [2] [%] | ln(avg k) [3, 4] | ln(avg k) [3, 5] | ln(avg k) [3, 6] | OTUB2 % labeling ([1]; OTUB2 protein labeling) [%] | ln(avg k) [3, 7] |
| --- | --- | --- | --- | --- | --- | --- | --- |
| O=C(CCl)NC(=O)NCC1COc2ccccc2O1 (stereo not shown) [PCM-0102092, O=C(CCl)NC(=O)NCC1COc2ccccc2O1] | 0 | 0 | -15.940 | -15.940 | – | – | – |
| O=C(CCl)N1CCN(c2ncccn2)CC1 [PCM-0102093, O=C(CCl)N1CCN(c2ncccn2)CC1] | 0 | 0 | -15.547 | -15.547 | – | – | – |
| O=C(CCl)N1CCN(c2ccc([N+](=O)[O-])cc2)CC1 [PCM-0102094, O=C(CCl)N1CCN(c2ccc([N+](=O)[O-])cc2)CC1] | 0 | 27 | -15.009 | -15.009 | – | – | – |
| Cc1csc(CC(=O)NNC(=O)CCl)n1 [PCM-0102095, Cc1csc(CC(=O)NNC(=O)CCl)n1] | 51 | 0 | -16.857 | -16.857 | – | – | – |
| CC(NC(=O)CCl)c1ccc(Cl)c(Cl)c1 (stereo not shown) [PCM-0102096, CC(NC(=O)CCl)c1ccc(Cl)c(Cl)c1] | 26 | 51 | -16.200 | -16.200 | – | – | – |
| O=C(CCl)Nc1cccc2ncccc12 [PCM-0102097, O=C(CCl)Nc1cccc2ncccc12] | 42 | 0 | -16.130 | -16.130 | – | – | – |
| Cc1ccc([N+](=O)[O-])cc1NC(=O)CCl [PCM-0102098, Cc1ccc([N+](=O)[O-])cc1NC(=O)CCl] | 33 | 12 | -15.712 | -15.712 | – | – | – |
| Cc1c(C#N)c(NC(=O)CCl)n(-c2ccc(F)cc2)c1C [PCM-0102099, Cc1c(C#N)c(NC(=O)CCl)n(-c2ccc(F)cc2)c1C] | 0 | 17 | -15.940 | -15.940 | – | – | – |
| O=C(CCl)Nc1ccc(-c2nnc3n2CCCCC3)cc1 [PCM-0102101, O=C(CCl)Nc1ccc(-c2nnc3n2CCCCC3)cc1] | 28 | 0 | -15.815 | -15.815 | – | – | – |
| Cc1ccc(C2=NN(C(=O)CCl)C(c3ccco3)C2)o1 (stereo not shown) [PCM-0102102, Cc1ccc(C2=NN(C(=O)CCl)C(c3ccco3)C2)o1] | 0 | 20 | -14.412 | -14.412 | – | – | – |
| CCN1CCC(NC(=O)CCl)CC1 [PCM-0102103, CCN1CCC(NC(=O)CCl)CC1] | 0 | 0 | -15.455 | -15.455 | – | – | – |
| O=C(CCl)Nc1ccc2c(c1)OC1(CCCCC1)O2 [PCM-0102104, O=C(CCl)Nc1ccc2c(c1)OC1(CCCCC1)O2] | 47 | 8 | -15.658 | -15.658 | – | – | – |
| CCN(C(=O)CCl)C1CCS(=O)(=O)C1 (stereo not shown) [PCM-0102105, CCN(C(=O)CCl)C1CCS(=O)(=O)C1] | 0 | 0 | -15.384 | -15.384 | – | – | – |
| CC(NC(=O)CCl)c1ccccc1Cl (stereo not shown) [PCM-0102110, CC(NC(=O)CCl)c1ccccc1Cl] | 25 | 0 | -16.453 | -16.453 | – | – | – |
| O=C(CCl)Nc1ccc(Cl)c(Cl)c1 [PCM-0102112, O=C(CCl)Nc1ccc(Cl)c(Cl)c1] | 30 | 18 | -15.433 | -15.433 | – | – | – |
| Cc1nc(NC(=O)CCl)sc1C [PCM-0102124, Cc1nc(NC(=O)CCl)sc1C] | 0 | – | – | -15.463 | – | – | – |
| N#CC1(NC(=O)CCl)CCCC1 [PCM-0102136, N#CC1(NC(=O)CCl)CCCC1] | – | 0 | -15.612 | – | – | – | – |
| O=C(CCl)Nc1ccc2[nH]c(C(F)(F)F)nc2c1 [PCM-0102151, O=C(CCl)Nc1ccc2[nH]c(C(F)(F)F)nc2c1] | – | 7 | -15.575 | – | – | – | – |
| Cc1cccc([N+](=O)[O-])c1NC(=O)CCl [PCM-0102176, Cc1cccc([N+](=O)[O-])c1NC(=O)CCl] | – | 22 | -16.601 | – | – | – | – |
| O=C(CCl)N1N=C(c2ccco2)CC1c1cccs1 (stereo not shown) [PCM-0102182, O=C(CCl)N1N=C(c2ccco2)CC1c1cccs1] | 0 | – | – | -14.540 | – | – | – |
| O=C(CCl)Nc1ccc(N2CCCCCC2)cc1 [PCM-0102199, O=C(CCl)Nc1ccc(N2CCCCCC2)cc1] | – | 8 | -15.785 | – | – | – | – |
| Cc1cccc(N2CCN(C(=O)CCl)CC2)c1C [PCM-0102215, Cc1cccc(N2CCN(C(=O)CCl)CC2)c1C] | – | 29 | -15.103 | – | – | – | – |
| O=C(CCl)Nc1c(Cl)cccc1Cl [PCM-0102234, O=C(CCl)Nc1c(Cl)cccc1Cl] | – | 64 | -17.086 | – | – | – | – |
| CC1CCN(c2ccc(NC(=O)CCl)cc2)CC1 [PCM-0102235, CC1CCN(c2ccc(NC(=O)CCl)cc2)CC1] | – | 0 | -16.035 | – | – | – | – |
| Cc1ccccc1CNC(=O)CCl [PCM-0102253, Cc1ccccc1CNC(=O)CCl] | – | 0 | -16.467 | – | – | – | – |
| COc1ccc(NC(=O)NC(=O)CCl)cc1 [PCM-0102268, COc1ccc(NC(=O)NC(=O)CCl)cc1] | – | 0 | -15.795 | – | – | – | – |
| Cc1cc(N2CCCC2)ccc1NC(=O)CCl [PCM-0102301, Cc1cc(N2CCCC2)ccc1NC(=O)CCl] | – | 24 | -16.271 | – | – | – | – |

| SMILES | OTUB2 % labeling [1] [%] | NUDT7 % labeling [2] [%] | ln(avg k) [3, 4] | ln(avg k) [3, 5] | ln(avg k) [3, 6] | OTUB2 % labeling ([1]; OTUB2 protein labeling) [%] | ln(avg k) [3, 7] |
| --- | --- | --- | --- | --- | --- | --- | --- |
| O=C(CCl)NC1CCCCCCC1 [PCM-0102318, O=C(CCl)NC1CCCCCCC1] | – | 0 | -16.468 | – | – | – | – |
| Cc1cc(NC(=O)CCl)n(C)n1 [PCM-0102383, Cc1cc(NC(=O)CCl)n(C)n1] | – | 0 | -15.428 | – | – | – | – |
| Cc1ccc(NC(=O)CCl)c(Cl)c1 [PCM-0102408, Cc1ccc(NC(=O)CCl)c(Cl)c1] | – | 18 | -16.426 | – | – | – | – |
| O=C(CCl)Nc1nncs1 [PCM-0102427, O=C(CCl)Nc1nncs1] | 0 | – | – | -16.300 | – | – | – |
| CC1CCCCN1C(=O)CCl (stereo not shown) [PCM-0102434, CC1CCCCN1C(=O)CCl] | – | 0 | -15.958 | – | – | – | – |
| O=C(CCl)N1CCC2CCCCC2C1 (stereo not shown) [PCM-0102474, O=C(CCl)N1CCC2CCCCC2C1] | 0 | – | – | -15.859 | – | – | – |
| O=C(CCl)N1CCc2[nH]c3ccccc3c2C1 [PCM-0102591, O=C(CCl)N1CCc2[nH]c3ccccc3c2C1] | – | 22 | -14.023 | – | – | – | – |
| Cc1cc(NC(=O)CCl)ccc1Br [PCM-0102770, Cc1cc(NC(=O)CCl)ccc1Br] | – | 21 | – | – | -15.518 | – | – |
| O=C(CCl)N(C1CC1)C1CCCc2ccccc21 (stereo not shown) [PCM-0102774, O=C(CCl)N(C1CC1)C1CCCc2ccccc21] | – | – | – | – | – | 0 | -16.197 |
| CC1CCC(N(C(=O)CCl)C2CC2)CC1 (stereo not shown) [PCM-0102792, CC1CCC(N(C(=O)CCl)C2CC2)CC1] | – | 13 | – | – | -16.001 | – | – |
| O=C(CCl)Nc1ccc2c(c1)OC1(CCCC1)O2 [PCM-0102801, O=C(CCl)Nc1ccc2c(c1)OC1(CCCC1)O2] | – | 10 | – | – | -15.785 | – | – |
| O=C(CCl)Nc1ccc(N2CCCCC2)nc1 [PCM-0102812, O=C(CCl)Nc1ccc(N2CCCCC2)nc1] | – | 14 | – | – | -15.797 | – | – |
| O=C(CCl)NC1CCC2(CC1)OCCO2 [PCM-0102820, O=C(CCl)NC1CCC2(CC1)OCCO2] | – | – | – | – | – | 13 | -16.468 |
| CN(C)c1ccc(NC(=O)CCl)cc1 [PCM-0102859, CN(C)c1ccc(NC(=O)CCl)cc1] | – | 0 | – | – | -14.235 | – | – |
| O=C(CCl)NC1CCC(C(F)(F)F)CC1 (stereo not shown) [PCM-0102864, O=C(CCl)NC1CCC(C(F)(F)F)CC1] | – | 0 | – | – | -16.404 | – | – |
| C=CC(=O)Nc1nc(-c2ccc(O)cc2)cs1 [PCM-0102884, C=CC(=O)Nc1nc(-c2ccc(O)cc2)cs1] | – | – | – | – | – | 0 | -17.011 |
| O=C(CCl)Nc1ccc2c(c1)NC(=O)CO2 [PCM-0102890, O=C(CCl)Nc1ccc2c(c1)NC(=O)CO2] | – | 8 | – | – | – | 32 | – |
| O=C(CCl)Nc1ccccc1O [PCM-0102907, O=C(CCl)Nc1ccccc1O] | – | 36 | – | – | -17.265 | – | – |
| Cc1ccccc1CN1CCCN(C(=O)CCl)CC1 [PCM-0102911, Cc1ccccc1CN1CCCN(C(=O)CCl)CC1] | – | 0 | – | – | – | 0 | – |
| CC(=O)NC1CCCN(C(=O)CCl)C1 (stereo not shown) [PCM-0102934, CC(=O)NC1CCCN(C(=O)CCl)C1] | – | 0 | – | – | -15.534 | – | – |
| CN(Cc1cccc(Cl)c1)C(=O)CCl [PCM-0102976, CN(Cc1cccc(Cl)c1)C(=O)CCl] | – | – | – | – | – | 0 | -16.166 |
| O=C(CCl)Nc1nc(-c2ccco2)cs1 [PCM-0102979, O=C(CCl)Nc1nc(-c2ccco2)cs1] | – | 25 | – | – | -15.876 | – | – |
| CC(NC(=O)CCl)C(=O)O (stereo not shown) [PCM-0102990, CC(NC(=O)CCl)C(=O)O] | – | 0 | – | – | -18.115 | – | – |
| O=C(CCl)NCC#Cc1ccccc1 [PCM-0103007, O=C(CCl)NCC#Cc1ccccc1] | – | – | – | – | – | 60 | -16.727 |
| Cc1ccc(NC(=O)CCl)c(C)c1 [PCM-0103041, Cc1ccc(NC(=O)CCl)c(C)c1] | – | 0 | – | – | -16.644 | – | – |
| Cc1ccc(CN2CCCN(C(=O)CCl)CC2)cc1 [PCM-0103056, Cc1ccc(CN2CCCN(C(=O)CCl)CC2)cc1] | – | 0 | – | – | – | 0 | – |
